*1 amine or outer side, *2 acyl side, *3 side chain or, on linkers, in order; H or OH if unused. Where a SMILES comes first, the peptide text is derived from it. Side-chain parts run from the residue outwards. The star is where a group is joined. C18 diacid = O=C(O)CCCCCCCCCCCCCCCCC(=O)*; γGlu = O=C(O)[C@H](CCC(=O)[*:2])N[*:1]; Isovaleryl = CC(C)CC(=O)*; Ahx = NCCCCCC(=O)O
Legend:
[1] = biological target: T1, human NPY5 receptor (hY5R) (Homo sapiens, UniProt Q15761); experiment: HTRF cAMP Gi assay, hY5R
T1 sequence (Q15761 1-445): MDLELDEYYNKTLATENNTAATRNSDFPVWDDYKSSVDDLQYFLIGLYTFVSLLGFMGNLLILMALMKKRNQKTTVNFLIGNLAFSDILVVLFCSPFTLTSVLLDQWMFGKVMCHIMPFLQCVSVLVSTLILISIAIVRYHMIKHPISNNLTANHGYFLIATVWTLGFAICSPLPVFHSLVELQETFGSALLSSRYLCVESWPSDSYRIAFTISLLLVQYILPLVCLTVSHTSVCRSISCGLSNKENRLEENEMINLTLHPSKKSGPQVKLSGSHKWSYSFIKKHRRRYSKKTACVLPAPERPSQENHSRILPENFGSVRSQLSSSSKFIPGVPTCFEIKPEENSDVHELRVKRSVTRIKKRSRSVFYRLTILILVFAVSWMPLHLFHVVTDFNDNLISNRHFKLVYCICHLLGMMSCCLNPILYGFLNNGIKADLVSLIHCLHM

[2] = Solubility determination; conditions: for Sol6: pH 6; for Sol7: pH 7
Summary of the method: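 Shake-flask style: 10 mg/ml peptide (TFA salt), 0.1 M sodium diphosphate pH 6.4/7.0, 600 rpm, 2 h, RT; filter; dilute 1 mg/ml in 50% MeCN; RP-UPLC, 0–100% B over 2 min, 50 °C. Solubility = sample/control area ratio. Final pH recorded.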

[3] = biological target: T2, Human Neuropeptide Y2 Receptor (Homo sapiens, UniProt P49146); experiment: Radioligand binding competition assay (RLB); conditions: Table 3, 125I-PYY(1-36) competition; read-out: Ki
T2 construct: purchased CHEMICON HTS066M
T2 sequence (P49146 1-381): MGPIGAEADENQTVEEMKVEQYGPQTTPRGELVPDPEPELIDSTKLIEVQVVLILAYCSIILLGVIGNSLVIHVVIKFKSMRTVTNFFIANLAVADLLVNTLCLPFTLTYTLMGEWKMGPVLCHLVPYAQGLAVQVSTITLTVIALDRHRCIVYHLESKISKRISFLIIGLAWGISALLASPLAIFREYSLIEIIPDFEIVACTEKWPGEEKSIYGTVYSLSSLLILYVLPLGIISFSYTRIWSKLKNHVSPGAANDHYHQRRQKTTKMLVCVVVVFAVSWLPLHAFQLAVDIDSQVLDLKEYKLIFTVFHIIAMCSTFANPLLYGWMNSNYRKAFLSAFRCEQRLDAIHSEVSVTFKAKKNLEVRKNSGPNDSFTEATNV
Summary of the method: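 Displacement of radioligand is measured after 2 h at room temperature with receptor membranes in Mg2+/Ca2+ HEPES buffer, pH 7.4. Filter-bound radioactivity is counted and IC50 obtained from curve fitting.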

| SMILES | EC50 [1] [nM] | Sol6 [2] [mg/mL] | Sol7 [2] [mg/mL] | Ki [3] [nM] |
| --- | --- | --- | --- | --- |
| CC(C)CC(=O)N[C@@H](C)C(=O)N1CCC[C@H]1C(=O)N[C@@H](CCC(=O)O)C(=O)N[C@@H](CCCCNC(=O)CCCCCNC(=O)CC[C@H](NC(=O)CCCCCCCCCCCCCCCCC(=O)O)C(=O)O)C(=O)N1CCC[C@H]1C(=O)N[C@@H](CCC(=O)O)C(=O)N[C@@H](CCC(=O)O)C(=O)N[C@@H](CC(=O)O)C(=O)N[C@@H](C)C(=O)N[C@H](C(=O)N1CCC[C@H]1C(=O)N[C@@H](CCC(=O)O)C(=O)N[C@@H](CCC(=O)O)C(=O)N[C@@H](C)C(=O)N[C@@H](CCC(N)=O)C(=O)N[C@@H](CCCNC(=N)N)C(=O)N[C@@H](Cc1ccc(O)cc1)C(=O)N[C@@H](Cc1ccc(O)cc1)C(=O)N[C@H](C(=O)N[C@@H](CO)C(=O)N[C@@H](CC(C)C)C(=O)N[C@@H](CCCNC(=N)N)C(=O)N[C@@H](Cc1c[nH]cn1)C(=O)N[C@@H](Cc1ccc(O)cc1)C(=O)N[C@@H](Cc1ccc(O)cc1)C(=O)N[C@@H](CC(N)=O)C(=O)N[C@@H](Cc1c[nH]c2ccccc12)C(=O)N[C@@H](CC(C)C)C(=O)N[C@H](C(=O)N[C@@H](CCCNC(=N)N)C(=O)N[C@@H](CCC(N)=O)C(=O)N[C@@H](CCCNC(=N)N)C(=O)N[C@@H](Cc1ccc(O)cc1)C(N)=O)[C@@H](C)O)C(C)C)[C@@H](C)O [Compound 54, N{alpha-4}-(3-methylbutanoyl)-N{epsilon-7}-(6-[(4S)-4-carboxy-4-(17-carboxyheptadecanamido)butanamido]hexanoyl)-[4A,7K,9E,13T,17A,18Q,22V,28Y,30W,31L]-hPYY(4-36)] | – | 10.0 | 10.0 | 8.97 |
| CC[C@H](C)[C@H](NC(=O)[C@H](Cc1ccc(O)cc1)NC(=O)[C@H](Cc1ccc(O)cc1)NC(=O)[C@H](CCCNC(=N)N)NC(=O)[C@H](CCC(N)=O)NC(=O)[C@H](CC(C)C)NC(=O)[C@H](CCC(=O)O)NC(=O)[C@H](CCC(=O)O)NC(=O)[C@@H]1CCCN1C(=O)[C@H](CCC(=O)O)NC(=O)[C@H](C)NC(=O)[C@H](CC(=O)O)NC(=O)[C@H](C)NC(=O)[C@H](CCC(=O)O)NC(=O)[C@@H]1CCCN1C(=O)[C@H](CCCCNC(=O)CCCCCNC(=O)CC[C@H](NC(=O)CCCCCCCCCCCCCCCCC(=O)O)C(=O)O)NC(=O)[C@H](CCC(=O)O)NC(=O)[C@@H]1CCCN1C(=O)[C@H](C)NC(=O)CC(C)C)C(=O)N[C@@H](CO)C(=O)N[C@@H](CC(C)C)C(=O)N[C@@H](CCCNC(=N)N)C(=O)N[C@@H](Cc1c[nH]cn1)C(=O)N[C@@H](Cc1ccc(O)cc1)C(=O)N[C@@H](Cc1ccc(O)cc1)C(=O)N[C@@H](CC(N)=O)C(=O)N[C@@H](Cc1c[nH]c2ccccc12)C(=O)N[C@@H](CC(C)C)C(=O)N[C@H](C(=O)N[C@@H](CCCNC(=N)N)C(=O)N[C@@H](CCC(N)=O)C(=O)N[C@@H](CCCNC(=N)N)C(=O)N[C@@H](Cc1ccc(O)cc1)C(N)=O)[C@@H](C)O [Compound 159, N{alpha-4}-(3-methylbutanoyl)-N{epsilon-7}-(6-[(4S)-4-carboxy-4-(17-carboxyheptadecanamido)butanamido]hexanoyl)-[4A,7K,9E,10A,13E,18Q,22I,28Y,30W,31L]-hPYY(4-36)] (Isovaleryl-APEK([Ahx-γGlu-C18 diacid])PEADAEPEELQRYYISLRHYYNWLTRQRY-NH2) | – | >10.0 | 10.0 | 2.75 |
| CC(C)CC(=O)N[C@@H](C)C(=O)N1CCC[C@H]1C(=O)N[C@@H](CCC(=O)O)C(=O)N[C@@H](CCCCNC(=O)CCCCCNC(=O)CC[C@H](NC(=O)CCCCCCCCCCCCCCCCC(=O)O)C(=O)O)C(=O)N1CCC[C@H]1C(=O)N[C@@H](CCC(=O)O)C(=O)N[C@@H](CCC(=O)O)C(=O)N[C@@H](CC(=O)O)C(=O)N[C@@H](C)C(=O)N[C@@H](CO)C(=O)N1CCC[C@H]1C(=O)N[C@@H](CCC(=O)O)C(=O)N[C@@H](CCC(=O)O)C(=O)N[C@@H](CC(C)C)C(=O)N[C@@H](CCC(N)=O)C(=O)N[C@@H](CCCNC(=N)N)C(=O)N[C@@H](Cc1ccc(O)cc1)C(=O)N[C@@H](Cc1ccc(O)cc1)C(=O)N[C@H](C(=O)N[C@@H](CCC(=O)O)C(=O)N[C@@H](CC(C)C)C(=O)N[C@@H](CCCNC(=N)N)C(=O)N[C@@H](Cc1c[nH]cn1)C(=O)N[C@@H](Cc1ccc(O)cc1)C(=O)N[C@@H](Cc1ccc(O)cc1)C(=O)N[C@@H](CC(N)=O)C(=O)N[C@@H](Cc1c[nH]c2ccccc12)C(=O)N[C@@H](CC(C)C)C(=O)N[C@H](C(=O)N[C@@H](CCCNC(=N)N)C(=O)N[C@@H](CCC(N)=O)C(=O)N[C@@H](CCCNC(=N)N)C(=O)N[C@@H](Cc1ccc(O)cc1)C(N)=O)[C@@H](C)O)C(C)C [Compound 125, N{alpha-4}-(3-methylbutanoyl)-N{epsilon-7}-(6-[(4S)-4-carboxy-4-(17-carboxyheptadecanamido)butanamido]hexanoyl)-[4A,7K,9E,18Q,22V,23E,28Y,30W,31L]-hPYY(4-36)] | – | 9.7 | 10.0 | 3.37 |

More lines, in order of falling Ki [3], values ahead:

| EC50 [1] [nM] | Sol6 [2] [mg/mL] | Sol7 [2] [mg/mL] | Ki [3] [nM] | SMILES |
| --- | --- | --- | --- | --- |
| > 5000 | 9.3 | 9.2 | 3.98 | CC[C@H](C)[C@H](NC(=O)[C@H](CCC(=O)O)NC(=O)[C@H](CCC(=O)O)NC(=O)[C@@H]1CCCN1C(=O)[C@H](CO)NC(=O)[C@H](C)NC(=O)[C@H](CC(=O)O)NC(=O)[C@H](CCC(=O)O)NC(=O)[C@H](CCC(=O)O)NC(=O)[C@@H]1CCCN1C(=O)[C@H](CCCCNC(=O)CCCCCNC(=O)CC[C@H](NC(=O)CCCCCCCCCCCCCCCCC(=O)O)C(=O)O)NC(=O)[C@H](CCC(=O)O)NC(=O)[C@@H]1CCCN1C(=O)[C@H](C)NC(=O)CC(C)C)C(=O)N[C@@H](CCC(N)=O)C(=O)N[C@@H](CCC(N)=O)C(=O)N[C@@H](Cc1ccc(O)cc1)C(=O)N[C@@H](Cc1ccc(O)cc1)C(=O)N[C@H](C(=O)N[C@@H](CO)C(=O)N[C@@H](CC(C)C)C(=O)N[C@@H](CCCNC(=N)N)C(=O)N[C@@H](Cc1c[nH]cn1)C(=O)N[C@@H](Cc1ccc(O)cc1)C(=O)N[C@@H](Cc1ccc(O)cc1)C(=O)N[C@@H](CC(N)=O)C(=O)N[C@@H](Cc1c[nH]c2ccccc12)C(=O)N[C@@H](CC(C)C)C(=O)N[C@H](C(=O)N[C@@H](CCCNC(=N)N)C(=O)N[C@@H](CCC(N)=O)C(=O)N[C@@H](CCCNC(=N)N)C(=O)N[C@@H](Cc1ccc(O)cc1)C(N)=O)[C@@H](C)O)C(C)C [Compound 15, N{alpha-4}-(3-methylbutanoyl)-N{epsilon-7}-(6-[(4S)-4-carboxy-4-(17-carboxyheptadecanamido)butanamido]hexanoyl)[4A,7K,9E,17I,18Q,19Q,22V,28Y,30W,31L]-hPYY(4-36)] |
| > 5000 | 10.0 | 10.0 | 2.68 | CC[C@H](C)[C@H](NC(=O)[C@H](Cc1ccc(O)cc1)NC(=O)[C@H](Cc1ccc(O)cc1)NC(=O)[C@H](CCCNC(=N)N)NC(=O)[C@H](CCC(N)=O)NC(=O)[C@H](CC(C)C)NC(=O)[C@H](CCC(=O)O)NC(=O)[C@H](CCC(=O)O)NC(=O)[C@@H]1CCCN1C(=O)[C@H](CO)NC(=O)[C@H](C)NC(=O)[C@H](CC(=O)O)NC(=O)[C@H](CCC(=O)O)NC(=O)[C@H](CCC(=O)O)NC(=O)[C@@H]1CCCN1C(=O)[C@H](CCCCNC(=O)CCCCCNC(=O)CC[C@H](NC(=O)CCCCCCCCCCCCCCCCC(=O)O)C(=O)O)NC(=O)[C@H](CCC(=O)O)NC(=O)[C@@H]1CCCN1C(=O)[C@H](C)NC(=O)CC(C)C)C(=O)N[C@@H](CO)C(=O)N[C@@H](CC(C)C)C(=O)N[C@@H](CCCNC(=N)N)C(=O)N[C@@H](Cc1c[nH]cn1)C(=O)N[C@@H](Cc1ccc(O)cc1)C(=O)N[C@@H](Cc1ccc(O)cc1)C(=O)N[C@@H](CC(N)=O)C(=O)N[C@@H](Cc1c[nH]c2ccccc12)C(=O)N[C@@H](CC(C)C)C(=O)N[C@H](C(=O)N[C@@H](CCCNC(=N)N)C(=O)N[C@@H](CCC(N)=O)C(=O)N[C@@H](CCCNC(=N)N)C(=O)N[C@@H](Cc1ccc(O)cc1)C(N)=O)[C@@H](C)O [Compound 76, N{alpha-4}-(3-methylbutanoyl)-N{epsilon-7}-(6-[(4S)-4-carboxy-4-(17-carboxyheptadecanamido)butanamido]hexanoyl)-[4A,7K,9E,18Q,22I,28Y,30W,31L]-hPYY(4-36)] |

Reference: patent publication US12391737B2, “Soluble NPY2 receptor agonists” (Boehringer Ingelheim International GmbH, priority 2020, dated 2025)
